What all share (type): in vivo
Data set [1] deals with male rats of Wistar strain. Put plainly: Acute oral toxicity (lethality) in rats. The conditions noted are these: 10 male Wistar rats.
The next data set concerns male Wistar rats. Put plainly: Randall & Selitto method (analgesic effect, brewer's yeast inflamed paw). Conditions: Rattus norvegicus, po, 2 hours after subplantar 20 % brewer's yeast, pain threshold every 1 hour for 4 hours, read-out: Analgesic action (ED50) Randall & Selitto method. On the procedure: (3) Randall & Selitto Method [Randall and Selitto: Arch. Int. Pharmacodyn. 111, 409(1957)]
6 male Wistar rats weighing 90 - 110 g were used in testing each compound. The pain threshold was measured with an analgesic meter (Ugo Basile). The test compounds were adminstered orally 2 hours after the subplantar injection(0.1 ml/rat) of 20 % brewer's yeast suspension into the right hind paw, and the pain threshold was measured every 1 hour for 4 hours.
Animals of which post-drug pain threshold raised more than 50 % as compared with the threshold in control group were regarded as positive for the analgesic activity, and the ED50 values were calculated from the positive percent.

The subject of data set [2] is male ddY mice. Put plainly: Acetic acid writhing method (analgesic effect). Conditions: Mus musculus, po, 30 minutes before i.p. 0.7 % acetic acid, writhes counted 10 to 20 minutes after injection, read-out: Analgesic action (ED50) Acetic acid writhing method. On the procedure: (1) Acetic Acid Writhing Method [Koster, Anderson and De Beer: Fed. Proc., 18, 412(1959)]
10 male ddY mice weighing 19 - 23 g were used in testing each compound. The test compounds were administered orally 30 minutes before in the intraperitoneal injection (0.1 ml/ 10 g ) of 0.7 % acetic acid. The number of writhes were counted in each mouse during a period spanning 10 to 20 minutes after the acetic acid injection.
The percent inhibition was calculated as compared with the number of writhes in the control group, and the ED50 values were calculated from the inhibitory percent.
(In general: In writhing tests, fewer writhes than in controls are read as antinociception.)

The test system of another data set is male S.D. rats. Put plainly: Adjuvant-induced arthritic pain (analgesic effect). Conditions: Rattus norvegicus, po, Mycobacterium butyricum polyarthritis, pain response every 1 hour for 5 hours, read-out: Analgesic action (ED50) Adjuvant-induced arthritic pain method. On the procedure:
(4) Adjuvant-induced Arthritic Pain [Kuzuna and Kawai: Chem. Pha^rm. Bull., ^23, 1184(1975)]
6 male S.D. rats weighing 160 - 200 g were used in testing each compound. Polyarthritis was induced by the intradermal injection (0.1 ml/rat) of 0.5 % Mycobacterium butyricum suspension into the distal portion of the tail. The pain stimulus was applied by a gentle flection of the right tarso-tibial joints repeatedly 5 times at intervals 4 to 5 seconds, the vocalization following the pain stimulus was regarded as pain response.

The test system of data set [3] is male ddY mice. Put plainly: Tail pressure method (analgesic effect). The conditions noted are these: Mus musculus, po, pain threshold raised more than 50 % = positive, measured every 30 minutes for 120 minutes, read-out: Analgesic action (ED50) Tail pressure method. On the procedure:
(2) Tail Pressure Method [Takagi and Kameyama: Yakugaku Zasshi, 78, 553(1958)]
10 male ddY mice weighing 20 - 25 g were used in testing each compound. The pressure stimulus was applied to the base of the mouse tail. The test compounds were administered orally and the pain threshold was measured every 30 minutes for 120 minutes.
Animals of which post-drug pain threshold raised more than 50 % as compared with its pre-drug threshold were regarded as positive for the analgesic activity, and the ED50 values were calculated from the positive percent.

Take `CC(C)OC(=O)n1c2cc(C(F)(F)F)ccc2c2oc(C(=O)N3CCOCC3)cc21` [Example 2, 4-isopropoxycarbonyl-2-morpholinocarbonyl-6-trifluoromethyl-furo-[3,2-b]indole]: in data set [1] (1000 mg/kg orally), the death result was “no death was observed”.
Same read-out and setting: next, `CCCCC(CC)C(=O)n1c2cc(C(F)(F)F)ccc2c2oc(C(=O)N3CCOCC3)cc21` (stereo not shown) [Example 1, 4-(2-ethylhexanoyl)-2-morpholinocarbonyl-6-trifluoromethyl-furo-[3,2-b]-indole]: “no death was observed”.
`CC(C)CC(=O)n1c2cc(C(F)(F)F)ccc2c2oc(C(=O)N3CCOCC3)cc21` [Example 3, 4-isobutylcarbonyl-2-morpholinocarbonyl-6-trifluoromethyl-furo[3,2-b]indole]: the death entry in data set [1] (2000 mg/kg orally) is “no death was observed”.
On to `O=C(c1cc2[nH]c3cc(C(F)(F)F)ccc3c2o1)N1CCOCC1` [R: -H, 2-morpholinocarbonyl-6-trifluoromethyl-4H-furo[3,2-b]indole], for which the ED50 in the data set with male Wistar rats, in the data set on male ddY mice [2], in the data set on male S.D. rats and in the data set on male ddY mice [3] was over 100 mg/kg throughout.

The values are drawn from patent EP0104596A2, “Furoindole derivatives” (TAISHO PHARMACEUTICAL CO. LTD, priority 1982, dated 1984).
